pIC50: −log10 of the molar value.

In the experiment the target is T1, chimeric human RORγ-Gal4 receptor (Homo sapiens, UniProt P51449).
T1 sequence (P51449 269-508 limits assumed): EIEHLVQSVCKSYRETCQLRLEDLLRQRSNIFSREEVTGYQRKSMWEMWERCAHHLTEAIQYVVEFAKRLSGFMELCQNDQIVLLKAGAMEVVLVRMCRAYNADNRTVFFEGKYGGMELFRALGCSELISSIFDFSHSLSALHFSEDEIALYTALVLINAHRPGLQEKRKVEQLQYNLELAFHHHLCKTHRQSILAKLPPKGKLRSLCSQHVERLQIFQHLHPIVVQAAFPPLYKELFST
The experiment is described as follows: transient transactivation assay (RORγ-Gal4 luciferase reporter). Conditions: Cos-7 cells transfected with RORγ-Gal4 and 5Gal4 pGL3 TK Luc reporter; overnight incubation; T0901317 at 10^-5 M as reference; read-out: IC50. The class given is cell-based.
In the case of `Cc1cc(OC(F)(F)F)cc2c1c(Cc1c(Cl)ccc(C(=O)N3CCC(C(=O)O)C(C)C3)c1Cl)cn2C` (centres unmarked) [DU1-2], the negative logarithm of the IC50 (pIC50) was > 7.00.

Regarding `Cc1cc(OC(F)(F)F)cc2c1c(Cc1c(Cl)ccc(C(=O)N3CCC(C(=O)O)CC3)c1Cl)cn2C` [DU, 1-[2,4-dichloro-3-[[1,4-dimethyl-6-(trifluoromethoxy)-1H-indol-3-yl]methyl]benzoyl]piperidine-4-carboxylic acid], the pIC50 was > 7.00.

In the case of `Cc1cc(C(F)(F)F)cc2c1c(Cc1c(Cl)ncc(C(=O)N3CCC(CC(=O)O)CC3)c1Cl)cn2C` [DV, 2-[1-[4,6-dichloro-5-[[1,4-dimethyl-6-(trifluoromethyl)-1H-indol-3-yl]methyl]pyridine-3-carbonyl]-4-piperidyl]acetic acid], the pIC50 is > 7.00.

Consider `Cc1cc(C(F)(F)F)cc2c1c(Cc1c(Cl)cnc(C(=O)N3CCC(CC(=O)O)CC3)c1Cl)cn2C` [DW, 2-[1-[3,5-dichloro-4-[[1,4-dimethyl-6-(trifluoromethyl)-1H-indol-3-yl]methyl]pyridine-2-carbonyl]-4-piperidyl]acetic acid], for which the pIC50 is > 7.00.

Take `Cc1cc(OC(F)(F)F)cc2c1c(Cc1c(Cl)cnc(C(=O)N3CCC(CC(=O)O)CC3)c1Cl)cn2C` [DX, 2-[1-[3,5-dichloro-4-[[1,4-dimethyl-6-(trifluoromethoxy)-1H-indol-3-yl]methyl]pyridine-2-carbonyl]-4-piperidyl]acetic acid]: the pIC50 is > 7.00.

On to `Cc1cc(OC(F)(F)F)cc2c1c(Cc1c(Cl)ncc(C(=O)N3CCC(CC(=O)O)CC3)c1Cl)cn2C` [DY, 2-[1-[4,6-dichloro-5-[[1,4-dimethyl-6-(trifluoromethoxy)-1H-indol-3-yl]methyl]pyridine-3-carbonyl]-4-piperidyl]acetic acid], for which the pIC50 is > 7.00.

Take `Cc1cc(C(F)(F)F)cc2occ(Cc3c(Cl)ccc(C(=O)N4CCC(CC(=O)O)CC4)c3Cl)c12` [DZ, 2-(1-(2,4-dichloro-3-((4-methyl-6-(trifluoromethyl)benzofuran-3-yl)methyl)benzoyl)piperidin-4-yl)acetic acid]: the pIC50 is > 7.00.

As for `Cc1nn(C(=O)c2c(Cl)ccc(C(=O)N3CCC(CC(=O)O)CC3)c2Cl)c2c(C)cc(C(F)(F)F)cc12` [EA, 2-(1-(2,4-dichloro-3-(3,7-dimethyl-5-(trifluoromethyl)-1H-indazole-1-carbonyl)benzoyl)piperidin-4-yl)acetic acid], the negative logarithm of the IC50 (pIC50) is > 7.00.

As for `Cc1cc(C(F)(F)F)cc2c(C)n(C(=O)c3c(Cl)ccc(C(=O)N4CCC(CC(=O)O)CC4)c3Cl)nc12` [EB, 2-(1-(2,4-dichloro-3-(3,7-dimethyl-5-(trifluoromethyl)-2H-indazole-2-carbonyl)benzoyl)piperidin-4-yl)acetic acid], the pIC50 was > 7.00.

`Cc1cc(C(F)(F)F)cc2cnn(Cc3c(Cl)ccc(C(=O)N4CCC(CC(=O)O)CC4)c3Cl)c12` [EC, 2-(1-(2,4-dichloro-3-((7-methyl-5-(trifluoromethyl)-1H-indazol-1-yl)methyl)benzoyl)piperidin-4-yl)acetic acid]: the pIC50 was > 7.00.

Turning to `Cc1cc(C(F)(F)F)cc2cn(Cc3c(Cl)ccc(C(=O)N4CCC(CC(=O)O)CC4)c3Cl)nc12` [ED, 2-(1-(2,4-dichloro-3-((7-methyl-5-(trifluoromethyl)-2H-indazol-2-yl)methyl)benzoyl)piperidin-4-yl)acetic acid], the pIC50 was > 7.00.

Take `Cc1cc(C(F)(F)F)cc2c1c(Cc1c(Cl)ccc(C(=O)N3CCC(CC(=O)O)CC3)c1Cl)nn2C` [EE, 2-(1-(2,4-dichloro-3-((1,4-dimethyl-6-(trifluoromethyl)-1H-indazol-3-yl)methyl)benzoyl)piperidin-4-yl)acetic acid]: the pIC50 is > 7.00.

`Cc1nn(Cc2c(Cl)ccc(C(=O)N3CCC(CC(=O)O)CC3)c2Cl)c2ccc(C(F)(F)F)cc12` [EF, 2-(1-(2,4-dichloro-3-((3-methyl-5-(trifluoromethyl)-1H-indazol-1-yl)methyl)benzoyl)piperidin-4-yl)acetic acid]: the negative logarithm of the IC50 (pIC50) is > 7.00.

Consider `Cc1cn(Cc2c(Cl)ccc(C(=O)N3CCC(CC(=O)O)CC3)c2Cl)c2c(C)cc(OC(F)(F)F)cc12` [EG, 2-[1-[2,4-dichloro-3-[[3,7-dimethyl-5-(trifluoromethoxy)-1H-indol-1-yl]methyl]benzoyl]-4-piperidyl]acetic acid], for which the pIC50 was > 7.00.

For `Cc1cn(Cc2c(Cl)ccc(C(=O)N3CCC(C(=O)O)CC3)c2Cl)c2c(C)cc(OC(F)(F)F)cc12` [EG-1], the pIC50 is > 7.00.

Consider `Cc1cn(Cc2c(Cl)ccc(C(=O)N3CC[C@@H](C(=O)O)[C@@H](C)C3)c2Cl)c2c(C)cc(OC(F)(F)F)cc12` [EG-2], for which the pIC50 was > 7.00.

With `Cc1cn(C(=O)c2c(Cl)ccc(C(=O)N3CCC(CC(=O)O)CC3)c2Cl)c2c(C)cc(OC(F)(F)F)cc12` [EH, 2-[1-[2,4-dichloro-3-[3,7-dimethyl-5-(trifluoromethoxy)indole-1-carbonyl]benzoyl]-4-piperidyl]acetic acid], the pIC50 is > 7.00.

Turning to `Cc1cn(C(=O)c2c(Cl)ccc(C(=O)N3CCC(C(=O)O)CC3)c2Cl)c2c(C)cc(OC(F)(F)F)cc12` [EH-1], the pIC50 is 6.30 to 7.00.

On to `O=C(O)CC1CCN(C(=O)c2ccc(Cl)c(Cn3ccc4cc(OC(F)(F)F)ccc43)c2Cl)CC1` [EI, 2-(1-(2,4-dichloro-3-((5-(trifluoromethoxy)-1H-indol-1-yl)methyl)benzoyl)piperidin-4-yl)acetic acid], for which the pIC50 is > 7.00.

On to `CC(C)c1ccc2c(ccn2Cc2c(Cl)ccc(C(=O)N3CCC(CC(=O)O)CC3)c2Cl)c1` [EI-1], for which the pIC50 is > 7.00.

Turning to `CSc1ccc2c(ccn2Cc2c(Cl)ccc(C(=O)N3CCC(CC(=O)O)CC3)c2Cl)c1` [EI-2], the negative-log IC50 (pIC50) was > 7.00.

`O=C(O)CC1CCN(C(=O)c2ccc(Cl)c(Cn3ccc4cccc(Cl)c43)c2Cl)CC1` [EI-3]: the negative logarithm of the IC50 (pIC50) is > 7.00.

As for `O=C(O)CC1CCN(C(=O)c2ccc(Cl)c(Cn3ccc4cc(C(F)(F)F)ccc43)c2Cl)CC1` [EI-4], the pIC50 is > 7.00.

In the case of `O=C(O)CC1CCN(C(=O)c2ccc(Cl)c(Cn3ccc4cc(C(F)(F)F)cc(Cl)c43)c2Cl)CC1` [EI-5], the pIC50 was > 7.00.

In the case of `O=C(O)CC1CCN(C(=O)c2ccc(Cl)c(Cn3ccc4c(C(F)(F)F)cccc43)c2Cl)CC1` [EI-7], the pIC50 was > 7.00.

`Cc1cc(OC(F)(F)F)cc2ccn(Cc3c(Cl)ccc(C(=O)N4CCC(CCC(=O)O)CC4)c3Cl)c12` [EJ-2]: the negative-log IC50 (pIC50) is > 7.00.

Take `Cc1ccc(C(=O)N2CCC(CC(=O)O)CC2)c(C)c1Cn1ccc2cc(OC(F)(F)F)cc(C)c21` [EK, 2-(1-(2,4-dimethyl-3-((7-methyl-5-(trifluoromethoxy)-1H-indol-1-yl)methyl)benzoyl)piperidin-4-yl)acetic acid]: the pIC50 is > 7.00.

On to `Cc1cc(OC(F)(F)F)cc2ccn(C(=O)c3c(Cl)ccc(C(=O)N4CCC(CC(=O)O)CC4)c3Cl)c12` [EL, 2-(1-(2,4-dichloro-3-(7-methyl-5-(trifluoromethoxy)-1H-indole-1-carbonyl)benzoyl)piperidin-4-yl)acetic acid], for which the pIC50 is > 7.00.

With `Cc1cc(OC(F)(F)F)cc2ccn(C(=O)c3c(Cl)ccc(C(=O)N4CC5(CC(CC(=O)O)C5)C4)c3Cl)c12` [EL-1], the negative-log IC50 (pIC50) is > 7.00.

For the origin of these results see patent US10106501B2, “Nuclear receptor modulators” (AbbVie Inc., priority 2015, dated 2018).
